Results from patent US7951807B2 (Abbott GmbH & Co. KG, priority 2004, dated 2011).
Where a name gives a salt, the structure may show the parent alone.

target: T1, human V1a receptors (Homo sapiens); experiment: Vasopressin V1a Receptor Binding Test; settings: membranes of CHO cells with stably expressed human V1a receptors, 125 iodine AVP displacement
T1 construct: expressed in transfected cells
Method: Vasopressin V1a Receptor Binding Test
(§1) The substances were dissolved in DMSO in a concentration of 10^−2 M and further diluted in DMSO to 10^−3 M to 10^−9 M. These DMSO solutions were diluted 1:10 with a test buffer. In the test batch, the substance concentration was again diluted 1:10.
The binding test was conducted according to the method of Tahara et al. (Tahara A. et al., Brit. J. Pharmacol. 125, 1463-1470 (1998)). In the test batch (0.250 ml), membranes (50 μg protein in an incubation buffer (50 mmol tris, 10 mmol MgCl2, 0.1% BSA adjusted to pH 7.4 with HCl)) of CHO cells were incubated with stably expressed human V1a receptors (preparation V1a clone 5.0, with protease inhibitors, Roche complete Mini # 1836170) with 0.04 nmol 125 iodine AVP (NEX128) in the incubation buffer (total binding) or additionally with increasing concentrations of the test substance (displacement experiment). The non-specific binding was determined with 10^−6 M AVP. Determinations were carried out three times.
(§2) After incubation, 60 minutes at room temperature, the free radioligand was filtered off using vacuum filtration (Skatron cell harvester 7000) through Wathman GF/B fibreglass filters, and the filters were transferred to scintillation containers.
(§3) The liquid scintillation measurement was made in a Tricarb device, model 2000 or 2200CA (Packard). The conversion of the measured cpm into dpm was carried out with the help of a standard quench series.
(§4) The binding parameters were calculated using non-linear regression in SAS. The algorithms of the program work in a manner analogous to the LIGAND evaluation program (Munson P J und Rodbard D, Analytical Biochem. 107, 220-239 (1980)).

Row | Structure (SMILES) | Ki
1 | COc1ccccc1C1(OC(=O)N2CCN(C3CCN(C)CC3)CC2)C(=O)N(S(=O)(=O)c2ccccc2)c2ccc(Cl)cc21 (stereo not drawn) [Example 1] | < 100 nM
2 | COc1ccc(S(=O)(=O)N2C(=O)C(NC(=O)N3CCN(C4CCN(C)CC4)CC3)(c3ccccc3OC)c3cc(Cl)ccc32)c(OC)c1 (stereo not drawn) [Example 3, 4-(1-Methyl-piperidine-4-yl)-piperazine-1-carboxylic acid-[1-(2,4-dimethoxy-benzenesulfonyl)-5-chloro-2-oxo-3-(2-methoxyphenyl)-2,3-dihydro-1H-indole-3-yl] amide dihydrochloride] | < 100 nM
3 | CN1CCC(N2CCN(C(=O)OC3(c4ccccc4)C(=O)N(S(=O)(=O)c4ccccc4)c4ccc(Cl)cc43)CC2)CC1 (stereo not drawn) [Example 4, 4-(1-Methyl-piperidine-4-yl)-piperazine-1-carboxylic acid-[1-benzenesulfonyl-5-chloro-2-oxo-3-phenyl-2,3-dihydro-1H-indole-3-yl] ester dihydrochloride] | < 100 nM
4 | CN1CCN(C2CCN(C(=O)OC3(c4ccccc4)C(=O)N(S(=O)(=O)c4ccccc4)c4ccc(Cl)cc43)CC2)CC1 (stereo not drawn) [Example 5, 4-(4-Methyl-piperazine-1-yl)-piperidine-1-carboxylic acid-[1-benzenesulfonyl-5-chloro-2-oxo-3-phenyl-2,3-dihydro-1H-indole-3-yl] ester] | < 100 nM
5 | COc1ccc(S(=O)(=O)N2C(=O)C(OC(=O)N3CCN(C4CCN(C)CC4)CC3)(c3ccccc3C)c3cc(OC)ccc32)c(OC)c1 (stereo not drawn) [Example 8, 4-(1-Methyl-piperidine-4-yl)-piperazine-1-carboxylic acid-[1-(2,4-dimethoxy-benzenesulfonyl)-5-methoxy-2-oxo-3-(2-methylphenyl)-2,3-dihydro-1H-indole-3-yl] ester dihydrochloride] | < 100 nM
6 | COc1ccc(S(=O)(=O)N2C(=O)C(OC(=O)N3CCN(C4CCN(Cc5ccccc5)CC4)CC3)(c3ccccc3OC)c3cc(OC)ccc32)c(OC)c1 (stereo not drawn) [Example 13, 4-(1-Benzyl-piperidine-4-yl)-piperazine-1-carboxylic acid-[1-(2,4-dimethoxy-benzenesulfonyl)-5-methoxy-2-oxo-3-(2-methoxyphenyl)-2,3-dihydro-1H-indole-3-yl] ester] | < 100 nM

target: T2, human V1b receptors (Homo sapiens, UniProt P47901); experiment: Vasopressin V1b Receptor Binding Test; settings: membranes of CHO-K1 cells with stably expressed human V1b receptors, 3H-AVP displacement
T2 construct: expressed in transfected cells
T2 sequence (P47901 1-424): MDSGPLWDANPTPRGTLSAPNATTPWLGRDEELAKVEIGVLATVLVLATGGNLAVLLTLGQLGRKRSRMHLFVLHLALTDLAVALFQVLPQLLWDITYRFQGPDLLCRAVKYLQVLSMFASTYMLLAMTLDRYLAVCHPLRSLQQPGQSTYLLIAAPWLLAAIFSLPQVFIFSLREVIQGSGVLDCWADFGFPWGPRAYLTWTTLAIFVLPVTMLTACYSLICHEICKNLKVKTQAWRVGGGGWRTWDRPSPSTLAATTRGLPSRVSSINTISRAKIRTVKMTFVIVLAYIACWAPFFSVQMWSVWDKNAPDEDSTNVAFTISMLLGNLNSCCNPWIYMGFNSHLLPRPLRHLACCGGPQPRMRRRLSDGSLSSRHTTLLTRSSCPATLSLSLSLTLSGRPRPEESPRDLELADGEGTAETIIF
Method: Vasopressin V1b Receptor Binding Test
as §1
The binding test was conducted according to the method of Tahara et al. (Tahara A. et al., Brit. J. Pharmacol. 125, 1463-1470 (1998)). In the test batch (0.250 ml), membranes (58 μg protein in an incubation buffer) of CHO-K1 cells were incubated with stably expressed human V1b receptors (preparation V1b-3H2, with protease inhibitors, Roche complete Mini # 1836170) with 1.5 nmol ^3H-AVP (8-Arg-Vasopressin, NET 800) in incubation buffer (50 mmol Tris, 10 mmol MgCl2, 0.1% BSA adjusted to pH 7.4 with HCl) (total binding) or additionally with increasing concentrations of the test substance (displacement experiment). The non-specific binding was determined with 10^−6 M AVP. Determinations were carried out three times.
Incubation buffer: 50 mmol tris, 10 mmol MgCl2, 0.1% BSA adjusted to pH 7.4 with HCl.
as §2, §3, §4

Row | Structure (SMILES) | Ki
7 | CCCOc1ccccc1C1(OC(=O)N2CCN(C3CCN(C)CC3)CC2)C(=O)N(S(=O)(=O)c2ccc(OC)cc2OC)c2ccc(OC)cc21 (stereo not drawn) [Example 2, 4-(1-Methyl-piperidine-4-yl)-piperazine-1-carboxylic acid-[1-(2,4-dimethoxy-benzenesulfonyl)-5-methoxy-2-oxo-3-(2-propoxyphenyl)-2,3-dihydro-1H-indole-3-yl] ester] | < 100 nM
8 | COc1ccc(S(=O)(=O)N2C(=O)C(OC(=O)N3CCN(C4CCN(C)CC4)CC3)(c3ccccc3OC)c3cc(OC)ccc32)c(OC)c1 (stereo not drawn) [Example 6, 4-(1-Methyl-piperidine-4-yl)-piperazine-1-carboxylic acid-[1-(2,4-dimethoxy-benzenesulfonyl)-5-methoxy-2-oxo-3-(2-methoxyphenyl)-2,3-dihydro-1H-indole-3-yl] ester dihydrochloride] | < 100 nM
9 | COc1ccc(S(=O)(=O)N2C(=O)C(OC(=O)N3CCN(C4CCN(C)CC4)CC3)(c3ccccc3OC)c3cc(F)ccc32)c(OC)c1 (stereo not drawn) [Example 10, 4-(1-Methyl-piperidine-4-yl)-piperazine-1-carboxylic acid-[1-(2,4-dimethoxy-benzenesulfonyl)-5-fluoro-2-oxo-3-(2-methoxyphenyl)-2,3-dihydro-1H-indole-3-yl] ester] | < 100 nM
10 | COc1ccc(S(=O)(=O)N2C(=O)C(NC(=O)N3CCN(C4CCN(C)CC4)CC3)(c3ccccc3OC)c3cc(OC)ccc32)c(OC)c1 (stereo not drawn) [Example 16, 4-(1-Methyl-piperidine-4-yl)-piperazine-1-carboxylic acid-[1-(2,4-dimethoxy-benzenesulfonyl)-5-methoxy-2-oxo-3-(2-methoxyphenyl)-2,3-dihydro-1H-indole-3-yl] amide dihydrochloride] | < 100 nM
11 | COc1ccc(S(=O)(=O)N2C(=O)C(OC(=O)N3CCN(C4CCN(C)CC4)CC3)(c3ccccc3OC)c3cc(C)ccc32)c(OC)c1 (stereo not drawn) [Example 17, 4-(1-Methyl-piperidine-4-yl)-piperazine-1-carboxylic acid-[1-(2,4-dimethoxy-benzenesulfonyl)-5-methyl-2-oxo-3-(2-methoxyphenyl)-2,3-dihydro-1H-indole-3-yl] ester dihydrochloride] | < 100 nM
12 | COc1ccc(S(=O)(=O)N2C(=O)C(OC(=O)N3CCN(C4CCN(C)CC4)CC3)(c3ccccc3OC)c3ccccc32)c(OC)c1 (stereo not drawn) [Example 23, 4-(1-Methyl-piperidine-4-yl)-piperazine-1-carboxylic acid-[1-(2,4-dimethoxy-benzenesulfonyl)-2-oxo-3-(2-methoxyphenyl)-2,3-dihydro-1H-indole-3-yl] ester dihydrochloride] | < 100 nM
13 | COc1ccc(S(=O)(=O)N2C(=O)C(OC(=O)N3CCN(C4CCN(C)CC4)CC3)(c3ccccc3OC(C)C)c3cc(OC)ccc32)c(OC)c1 (stereo not drawn) [Example 24, 4-(1-Methyl-piperidine-4-yl)-piperazine-1-carboxylic acid-[1-(2,4-dimethoxy-benzenesulfonyl)-5-methoxy-2-oxo-3-(2-isopropoxyphenyl)-2,3-dihydro-1H-indole-3-yl] ester dihydrochloride] | < 100 nM
14 | COc1ccc2c(c1)C(OC(=O)N1CCN(C3CCN(C)CC3)CC1)(c1ccccc1OC(C)C)C(=O)N2S(=O)(=O)c1ccc(C)cc1OC (stereo not drawn) [Example 26, 4-(1-Methyl-piperidine-4-yl)-piperazine-1-carboxylic acid-[1-(2-methoxy-4-methyl-benzene)-sulfonyl-5-methoxy-2-oxo-3-(2-isopropoxyphenyl)-2,3-dihydro-1H-indole-3-yl] ester dihydrochloride] | < 100 nM
15 | CCOc1ccccc1C1(OC(=O)N2CCN(C3CCN(C)CC3)CC2)C(=O)N(S(=O)(=O)c2ccc(OC)cc2OC)c2ccc(OC)cc21 (stereo not drawn) [Example 30, 4-(1-Methyl-piperidine-4-yl)-piperazine-1-carboxylic acid-[1-(2,4-dimethoxy-benzenesulfonyl)-5-methoxy-2-oxo-3-(2-ethoxyphenyl)-2,3-dihydro-1H-indole-3-yl] ester dihydrochloride] | < 100 nM
